According to patent US11845760B2, “PRMT5 inhibitors” (AMGEN INC., priority 2020, dated 2023):
Where two headings read alike, the source gives them in different places.

How the values were obtained:
[1] = tested on: HCT116 MTAP null cells; test: HCT116 MTAP null cell line proliferation (CellTiter-Glo cell viability, 6 days); assay type: cell-based; settings: HCT116 MTAP null cells, 6 days of treatment, CellTiter-Glo cell viability, read-out: HCT-116 MTAP null IC50
How it was run: (§1)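 Isogenic HCT116 pair (parent and MTAP double-allele knockout) in RPMI 1640 + 10% FBS, exposed 6 days to compound: 8–9-point 1:3 dilutions from 1 or 10 μM top, or 22-point 1:2 dilutions from 10 or 50 μM top. CellTiter-Glo luminescence; IC50 from sigmoidal fit (Hill −1) or 4-parameter logistic.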

[2] = tested on: HCT116 WT cells; test: HCT116 WT cell line proliferation (CellTiter-Glo cell viability, 6 days); assay type: cell-based; settings: HCT116 WT (parent) cells, 6 days of treatment, CellTiter-Glo cell viability, read-out: HCT-116 WT IC50
How it was run: as §1

Row | SMILES | IC50 ([1]; HCT116-MTAP null, 144 h) | IC50 ([2]; Homo sapiens, HCT-116, 144 h) | IC50 [1] | IC50 [2]
1 | C[C@H]1OCc2c1c(N)nc1ccc(C(=O)N3C[C@@H](c4ccc(F)cc4)C(C)(C)C3)cc21 (single isomer, unassigned) [Example 462] | 595 nM | 14100 nM | – | –
2 | C[C@H]1OCc2c1c(N)nc1ccc(C(=O)N3C[C@H](c4ccc(F)cc4)C(C)(C)C3)cc21 (single isomer, unassigned) [Example 463] | 122 nM | 6550 nM | – | –
3 | Cc1ccc([C@@H]2CN(C(=O)c3cc4c5c(c(N)nc4cc3F)COC5)CC2(C)C)cc1 (single isomer, unassigned) [Example 464] | 195 nM | 5470 nM | – | –
4 | CC1(C)CN(C(=O)c2cc3c4c(c(N)nc3cc2F)COC4)C[C@H]1c1ccc(F)cc1 (single isomer, unassigned) [Example 465] | 71 nM | 3510 nM | – | –
5 | C[C@H]1OCc2c1c(N)nc1ccc(C(=O)N3C[C@@H](O)[C@H](c4ccc(Cl)cc4)C3)cc21 (single isomer, unassigned) [Example 466] | 189 nM | 16600 nM | – | –
6 | C[C@H]1OCc2c1c(N)nc1ccc(C(=O)N3C[C@H](c4ccc(Cl)cc4)[C@@H](O)C3)cc21 (single isomer, unassigned) [Example 467] | 982 nM | 31200 nM | – | –
7 | Cn1ncc2c(N)nc3cc(F)c(C(=O)N4CC[C@@H](Cc5ccc(C(F)(F)F)cc5)C4)cc3c21 (single isomer, unassigned) [Example 469] | 243 nM | 4950 nM | – | –
8 | Cn1ncc2c(N)nc3cc(F)c(C(=O)N4CC[C@H](Cc5ccc(C(F)(F)F)cc5)C4)cc3c21 (single isomer, unassigned) [Example 470] | 340 nM | 5300 nM | – | –
9 | Cn1ncc2c(N)nc3cc(F)c(C(=O)N4CC[C@@H](Oc5ccc(C(F)(F)F)cc5)C4)cc3c21 (single isomer, unassigned) [Example 471] | 283 nM | 6010 nM | – | –
10 | Cn1ncc2c(N)nc3cc(F)c(C(=O)N4CC[C@H](Oc5ccc(C(F)(F)F)cc5)C4)cc3c21 (single isomer, unassigned) [Example 472] | 190 nM | 4470 nM | – | –
11 | CC1(C)CN(C(=O)c2cc3c4c(c(N)nc3cc2F)COC4)C[C@@H]1c1ccc(C(F)(F)F)cc1 (single isomer, unassigned) [Example 473] | 17 nM | 556 nM | – | –
12 | Cn1ncc2c(N)nc3cc(F)c(C(=O)N4CC[C@@H](Oc5ccc(C(F)(F)F)cn5)C4)cc3c21 (single isomer, unassigned) [Example 474] | – | 6420 nM | 842 nM | –
13 | Cn1ncc2c(N)nc3cc(F)c(C(=O)N4CC[C@@H](Oc5ccc(C(F)(F)F)cn5)C4)cc3c21 (single isomer, unassigned) [Example 475] | – | – | 175 nM | 9490 nM
14 | Nc1nc2cc(Cl)c(C(=O)N3C[C@@H](c4ccc(F)cc4)[C@H](c4cc[nH]n4)C3)cc2c2c1COC2 (single isomer, unassigned) [Example 476] | 68 nM | 1560 nM | – | –
15 | Nc1nc2cc(Cl)c(C(=O)N3CC[C@@](O)(c4ccc(C(F)(F)F)cc4)C3)cc2c2c1COC2 (single isomer, unassigned) [Example 477] | 547 nM | > 50000 nM | – | –
16 | CC1(C)CN(C(=O)c2cc3c4c(c(N)nc3cc2F)COC4)C[C@H]1c1ccc(Br)cc1 (single isomer, unassigned) [Example 478] | 31 nM | 1950 nM | – | –
17 | COC(=O)[C@H]1CN(C(=O)c2cc3c4c(c(N)nc3cc2F)COC4)C[C@@H]1c1ccc(C(F)(F)F)cc1 (single isomer, unassigned) [Example 479] | 577 nM | 18900 nM | – | –
18 | COC(=O)[C@@H]1CN(C(=O)c2cc3c4c(c(N)nc3cc2F)COC4)C[C@H]1c1ccc(C(F)(F)F)cc1 (single isomer, unassigned) [Example 480] | 92 nM | 1750 nM | – | –
19 | Nc1nc2ccc(C(=O)N3CCOC[C@H]3c3ccc(C(F)(F)F)cc3)cc2c2ccsc12 (single isomer, unassigned) [Example 487] | > 1000 nM | > 10000 nM | – | –
20 | Nc1nc2ccc(C(=O)N3CCCC[C@H]3c3ccc(C(F)(F)F)cc3)cc2c2ccsc12 (single isomer, unassigned) [Example 489] | > 1000 nM | 5320 nM | – | –
21 | Nc1nc2ccc(C(=O)N3CCCC[C@@H]3c3ccc(C(F)(F)F)cc3)cc2c2ccsc12 (single isomer, unassigned) [Example 490] | > 1000 nM | 4800 nM | – | –
22 | C[C@H]1OCc2c1c(N)nc1ccc(C(=O)N3CCOC[C@@H]3c3ccc(OC(F)(F)F)cc3)cc21 (single isomer, unassigned) [Example 568] | 36 nM | 1790 nM | – | –
23 | C[C@@H]1OCc2c1c(N)nc1ccc(C(=O)N3CCOC[C@@H]3c3ccc(OC(F)(F)F)cc3)cc21 (single isomer, unassigned) [Example 569] | > 1000 nM | > 10000 nM | – | –

The next lines start with the values.

Row | IC50 ([1]; HCT116-MTAP null, 144 h) | IC50 ([2]; Homo sapiens, HCT-116, 144 h) | IC50 [1] | IC50 [2] | SMILES
24 | 417 nM | 37400 nM | – | – | Nc1nc2cc(F)c(C(=O)N3CC[C@H](c4ccc(C(F)(F)F)cc4)C3)cc2c2c1COC2 (single isomer, unassigned) [Example 468]
25 | 107 nM | 4330 nM | – | – | Nc1nc2cnc(C(=O)N3CCOC[C@@H]3c3ccc(C(F)(F)F)cc3)cc2c2c1COC2 (single isomer, unassigned) [Example 481]
26 | > 1000 nM | > 10000 nM | – | – | Nc1nc2cnc(C(=O)N3CCOC[C@H]3c3ccc(C(F)(F)F)cc3)cc2c2c1COC2 (single isomer, unassigned) [Example 482]
27 | 40 nM | 1740 nM | – | – | Nc1nc2cnc(C(=O)N3CCCC[C@@H]3c3ccc(C(F)(F)F)cc3)cc2c2c1COC2 (single isomer, unassigned) [Example 485]
28 | > 1000 nM | > 10000 nM | – | – | Nc1nc2cnc(C(=O)N3CCCC[C@H]3c3ccc(C(F)(F)F)cc3)cc2c2c1COC2 (single isomer, unassigned) [Example 486]
29 | > 1000 nM | 7490 nM | – | – | Nc1nc2ccc(C(=O)N3CCOC[C@@H]3c3ccc(C(F)(F)F)cc3)cc2c2ccsc12 (single isomer, unassigned) [Example 488]
30 | > 10000 nM | > 10000 nM | – | – | CC(C)C[C@@H]1COC[C@H](c2ccc(C(F)(F)F)cc2)N1C(=O)c1cc2c3c(c(N)nc2cn1)COC3 (single isomer, unassigned) [Example 566]
31 | 2140 nM | > 10000 nM | – | – | CC(C)C[C@H]1COC[C@@H](c2ccc(C(F)(F)F)cc2)N1C(=O)c1cc2c3c(c(N)nc2cn1)COC3 (single isomer, unassigned) [Example 567]
32 | 221 nM | 8760 nM | – | – | Nc1nc2ccc(C(=O)N3CCOC[C@@H]3c3ccc(C(F)(F)F)cn3)cc2c2c1COC2 (single isomer, unassigned) [Example 570]
33 | > 1000 nM | > 10000 nM | – | – | Nc1nc2ccc(C(=O)N3CCOC[C@H]3c3ccc(C(F)(F)F)cn3)cc2c2c1COC2 (single isomer, unassigned) [Example 571]
34 | > 1000 nM | > 10000 nM | – | – | Nc1nc2ccc(C(=O)N3CCOC[C@H]3c3ccc(Br)cn3)cc2c2c1COC2 (single isomer, unassigned) [Example 572]
35 | 241 nM | > 10000 nM | – | – | Nc1nc2ccc(C(=O)N3CCOC[C@@H]3c3ccc(Br)cn3)cc2c2c1COC2 (single isomer, unassigned) [Example 573]
36 | > 1000 nM | > 10000 nM | – | – | C[C@@H]1CN(C(=O)c2ccc3nc(N)c4c(c3c2)COC4)[C@H](c2ccc(C(F)(F)F)cn2)CO1 (single isomer, unassigned) [Example 574]
37 | 357 nM | 8480 nM | – | – | C[C@H]1CN(C(=O)c2ccc3nc(N)c4c(c3c2)COC4)[C@@H](c2ccc(C(F)(F)F)cn2)CO1 (single isomer, unassigned) [Example 575]
38 | > 1000 nM | > 10000 nM | – | – | N#Cc1ccc([C@@H]2COCCN2C(=O)c2ccc3nc(N)c4c(c3c2)COC4)nc1 (single isomer, unassigned) [Example 576]
39 | 873 nM | > 10000 nM | – | – | N#Cc1ccc([C@H]2COCCN2C(=O)c2ccc3nc(N)c4c(c3c2)COC4)nc1 (single isomer, unassigned) [Example 577]
40 | > 1000 nM | > 10000 nM | – | – | Nc1nc2ccc(C(=O)N3CCOC[C@H]3c3cccc(Cl)c3)cc2c2c1COC2 (single isomer, unassigned) [Example 578]
41 | 182 nM | 7570 nM | – | – | Nc1nc2ccc(C(=O)N3CCOC[C@@H]3c3cccc(Cl)c3)cc2c2c1COC2 (single isomer, unassigned) [Example 579]
